According to patent publication US20230159510A1, “NOVEL PRMT5 INHIBITORS” (AMGEN INC., priority 2020, published 2023):

Assays:
HCT116 WT cells = test: HCT116 proliferation assay, WT cells (CellTiter-Glo, 6 days); assay type: cell-based; conditions: Homo sapiens, HCT-116, 144 h, read-out: Prolif_HCT116-WT IC50
Procedure, shortened: (§1)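 Seed cells in RPMI 1640 supplemented with 10% FBS and incubate overnight at 37° C under 5% CO2. Treat with serially diluted compound (threefold steps, 8 or 9 points, highest 1 or 10 µM) or DMSO alone, then quantify viability by luminescence.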

HCT116 MTAP null cells = test: HCT116 proliferation assay, MTAP null cells (CellTiter-Glo, 6 days); assay type: cell-based; conditions: HCT116-MTAP null, 144 h, read-out: Protif_ HCT116-MTAP null IC50
Procedure, shortened: as §1

PRMT5/MEP50 = PRMT5/MEP50 (Homo sapiens, UniProt O14744); test: MTase-Glo methyl transferase assay, Method A (Histone H4 peptide, 1 µM MTA, 24 h pre-incubation); assay type: biochemical; design: made in house; conditions: read-out: PRMT5 MTase Glo Ki (nM, Meth. A)
Protocol: Method A: The PRMT5 inhibitory activity of test compounds was determined using the MTase-Glo™ assay (Promega), which monitors the product (S-adenosyl homocysteine or SAH) of methyltransferase reactions. The PRMT5 MTase-Glo assay was conducted in a 384-well white ProxiPlate (PerkinElmer) in a total volume of 12 µL. The PRMT5 enzymatic reaction (in 4 µL) contained 10 nM PRMT5/MEP50 (produced at Amgen), 5 µM S-adenosyl methionine (SAM, Promega), 1 µM Histone H4 (1-21)-Lys(Biotin) (Anaspec), 1 µM 5′-methylthioadenosine (MTA, Sigma) and two-fold serially diluted compounds in a reaction buffer of 50 mM Tris (pH 8.0), 50 mM NaCl, 0.01% Tween 20, 0.01% BSA, and 1 mM DTT. Test compounds were pre-incubated with PRMT5/MEP50, SAM, and MTA for 24 hours before addition of Histone H4 peptide to initiate the PRMT5 reaction. The reaction was allowed to proceed for 2 hours at room temperature and was then terminated by addition of 2 µL of 3X MTase-Glo™ Reagent (Promega) and 150 µM EPZ015666 (Sigma). After a 30-minute incubation at room temperature, 6 µL of MTase-Glo™ Detection Solution (Promega) was added and the plate was incubated at room temperature for an additional 30 minutes. The light signal corresponding to the amount of SAH produced by the PRMT5 reaction was subsequently measured using an Envision multimode reader (PerkinElmer). IC50 and KI values were obtained by analyzing dose-response curves using Genedata Screener (Genedata).

PRMT5/MEP50, sequence (O14744 whole entry): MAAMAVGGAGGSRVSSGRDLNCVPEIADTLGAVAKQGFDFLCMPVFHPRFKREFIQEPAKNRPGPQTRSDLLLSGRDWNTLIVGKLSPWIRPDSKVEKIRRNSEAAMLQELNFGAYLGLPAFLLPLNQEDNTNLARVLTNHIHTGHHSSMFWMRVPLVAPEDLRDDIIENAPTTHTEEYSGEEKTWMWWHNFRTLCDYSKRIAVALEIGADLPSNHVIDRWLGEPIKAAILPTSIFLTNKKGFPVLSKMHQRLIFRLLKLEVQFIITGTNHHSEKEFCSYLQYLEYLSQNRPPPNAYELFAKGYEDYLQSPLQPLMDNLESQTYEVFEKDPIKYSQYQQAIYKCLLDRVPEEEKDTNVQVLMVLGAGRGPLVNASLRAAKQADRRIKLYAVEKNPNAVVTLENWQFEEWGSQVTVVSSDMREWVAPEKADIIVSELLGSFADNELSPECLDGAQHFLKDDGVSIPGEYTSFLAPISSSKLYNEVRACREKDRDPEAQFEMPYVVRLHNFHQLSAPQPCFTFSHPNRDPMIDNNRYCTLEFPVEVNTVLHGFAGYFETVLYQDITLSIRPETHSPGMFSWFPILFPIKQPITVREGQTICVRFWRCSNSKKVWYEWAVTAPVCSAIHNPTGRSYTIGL
PRMT5/MEP50, sequence (Q9BQA1 whole entry partner): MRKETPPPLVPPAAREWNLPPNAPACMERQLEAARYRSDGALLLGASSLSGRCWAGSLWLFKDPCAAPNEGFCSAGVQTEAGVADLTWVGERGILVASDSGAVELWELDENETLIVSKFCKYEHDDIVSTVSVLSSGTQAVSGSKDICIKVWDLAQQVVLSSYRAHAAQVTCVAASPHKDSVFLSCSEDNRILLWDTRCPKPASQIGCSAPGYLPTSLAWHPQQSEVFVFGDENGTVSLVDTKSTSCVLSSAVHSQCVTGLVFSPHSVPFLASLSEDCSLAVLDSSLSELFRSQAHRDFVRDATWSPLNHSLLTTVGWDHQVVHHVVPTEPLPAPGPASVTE

Structure (SMILES)	IC50 (HCT116 WT cells) [nM]	IC50 (HCT116 MTAP null cells) [nM]	Ki (PRMT5/MEP50) [nM]
Cc1cc2cc(C(=O)N(Cc3ccc(Cl)c(C)n3)[C@H](C)c3ncccn3)ccc2nc1N (single isomer, unassigned) [Example 468]	853	34	< 0.1
COc1nc(C(F)(F)F)ccc1CN(C(=O)c1ccc2nc(N)c(C)cc2c1)[C@H](C)c1ncccn1 (single isomer, unassigned) [Example 469]	592	33	0.03
Cc1nc(CN(C(=O)c2cnc3nc(N)c(Br)cc3c2)[C@H](C)c2ncccn2)ccc1Br (single isomer, unassigned) [Example 470]	2210	93	0.09
Cc1cc2cc(C(=O)N(Cc3ccc(C(F)(F)F)cn3)[C@@H]3COCC[C@@H]3O)ccc2nc1N (single isomer, unassigned) [Example 471]	3110	101	0.11
Cc1cc2cc(C(=O)N(CC(C)C)[C@H](C)c3ccc(C(F)(F)F)cn3)ccc2nc1N (single isomer, unassigned) [Example 472]	> 10000	889	1.04
Cc1cc2cc(C(=O)N(Cc3ccc(C#N)cn3)[C@H](C)c3ccccn3)ccc2nc1N (single isomer, unassigned) [Example 473]	5110	302	0.17
Cc1cc2cc(C(=O)N(Cc3ncc(Br)cc3C)[C@H](C)c3ncccn3)ccc2nc1N (single isomer, unassigned) [Example 474]	3270	88	0.04
Cc1cc2cc(C(=O)N(Cc3ccc(C#N)cc3)[C@H](C)c3ncccn3)ccc2nc1N (single isomer, unassigned) [Example 475]	4460	268	0.07
Cc1cc2cc(C(=O)N(Cc3ccc(C(F)(F)F)nc3)[C@H](C)c3ncccn3)ccc2nc1N (single isomer, unassigned) [Example 477]	5640	195	0.11
COc1ccc(CN(C(=O)c2cc3cc(C)c(N)nc3cc2F)[C@H](C)c2ncccn2)nn1 (single isomer, unassigned) [Example 479]	1220	60	0.09
COc1ccc(CN(C(=O)c2cc3cc(C)c(N)nc3cc2F)[C@@H](C)c2ncccn2)nn1 (single isomer, unassigned) [Example 480]	1460	369	1.49
Cc1cc2cc(C(=O)N(Cc3ccc(C(F)(F)F)cn3)[C@H](C)c3ncc(F)cn3)cnc2nc1N (single isomer, unassigned) [Example 481]	4450	225	0.18
Cc1cc2cc(C(=O)N(Cc3ccc(C(F)(F)F)cn3)[C@H](C)c3cnccn3)ccc2nc1N (single isomer, unassigned) [Example 482]	4320	106	0.1
Cc1cc2cc(C(=O)N(Cc3cnc(C(F)(F)F)cn3)[C@H](C)c3ccc(F)cn3)ccc2nc1N (single isomer, unassigned) [Example 483]	> 10000	515	1.02
Cc1cc2cc(C(=O)N(Cc3ccc(C(F)(F)F)cn3)[C@H](C)c3ncccn3)cnc2nc1N (single isomer, unassigned) [Example 486]	3830	123	0.42
Cc1cc2cc(C(=O)N(Cc3ccc(OC(F)(F)F)cn3)[C@H](C)c3ncccn3)ccc2nc1N (single isomer, unassigned) [Example 487]	730	26	0.04
Cc1cc2cc(C(=O)N(Cc3ccc(C(F)(F)F)nn3)[C@H](C)c3ncccn3)ccc2nc1N (single isomer, unassigned) [Example 488]	1280	35	0.1
Cc1cc2cc(C(=O)N(Cc3ccc(OC(F)F)cn3)[C@H](C)c3ncccn3)ccc2nc1N (single isomer, unassigned) [Example 491]	1270	61	0.1
Cc1cc2cc(C(=O)N(Cc3ncc(C(F)(F)F)s3)[C@H](C)c3ncccn3)ccc2nc1N (single isomer, unassigned) [Example 492]	3390	175	0.22
[2H]C([2H])([2H])Oc1ccc(CN(C(=O)c2ccc3nc(N)c(C)cc3c2)[C@H](C)c2ncccn2)nc1 (single isomer, unassigned) [Example 493]	4080	146	0.26

More lines, now with the values ahead:

IC50 (HCT116 WT cells) [nM]	IC50 (HCT116 MTAP null cells) [nM]	Ki (PRMT5/MEP50) [nM]	Structure (SMILES)
5420	194	0.66	CC[C@H](c1ncccn1)N(Cc1ccc(C#N)cn1)C(=O)c1ccc2nc(N)c(C)cc2c1 (single isomer, unassigned) [Example 494]
3170	86	0.06	CC[C@H](c1ncccn1)N(Cc1ccc(C(F)(F)F)nn1)C(=O)c1ccc2nc(N)c(C)cc2c1 (single isomer, unassigned) [Example 495]
462	23	0.17	Cc1cc2cc(C(=O)N(Cc3ccc(C(F)(F)F)cn3)[C@H](C)c3ncn(C)n3)ccc2nc1N (single isomer, unassigned) [Example 496]
462	35	0.19	Cc1cc2cc(C(=O)N(Cc3ccc(C(F)(F)F)cn3)[C@H](C)c3ncn(C)n3)c(F)cc2nc1N (single isomer, unassigned) [Example 497]
2030	459	2.43	Cc1cc2cc(C(=O)N(Cc3ccc(C(F)(F)F)cn3)[C@@H](C)c3ncn(C)n3)c(F)cc2nc1N (single isomer, unassigned) [Example 498]
> 10000	251	0.18	CC[C@H](c1ncccn1)N(Cc1ccc(C(F)(F)F)cn1)C(=O)c1cc2cc(Br)c(N)nc2cn1 (single isomer, unassigned) [Example 499]
4590	187	0.52	CC[C@H](c1ncccn1)N(Cc1ccc(C(F)F)cn1)C(=O)c1cnc2nc(N)c(Br)cc2c1 (single isomer, unassigned) [Example 500]
5920	107	0.02	CC[C@H](c1ncccn1)N(Cc1ccc(C(F)F)cn1)C(=O)c1ccc2nc(N)c(Br)cc2c1 (single isomer, unassigned) [Example 501]
3640	155	0.14	CC[C@H](c1ncccn1)N(Cc1cnc(C(F)(F)F)cn1)C(=O)c1ccc2nc(N)c(C)cc2c1 (single isomer, unassigned) [Example 516]
851	47	0.11	Cc1cc2cc(C(=O)N(Cc3ccc(C(F)(F)F)nn3)[C@@H](c3ncccn3)C3CC3)ccc2nc1N (single isomer, unassigned) [Example 518]
1700	62	0.13	Cc1cc2cc(C(=O)N(Cc3ccc(C#N)cn3)[C@@H]3CCOc4cccnc43)ccc2nc1N (single isomer, unassigned) [Example 519]
737	24	0.04	Cc1cc2cc(C(=O)N(Cc3ccc(C(F)(F)F)nn3)[C@@H]3CCOc4cccnc43)ccc2nc1N (single isomer, unassigned) [Example 520]
